Results on 15 compounds are retold here after PubChem BioAssay (NCI).

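Following 48 hours of exposure in 96-well plates, responses at five concentrations were used to interpolate endpoints linearly. TGI: concentration producing complete growth inhibition.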

Among the test systems are UACC-257 melanoma; HOP-62 NSCLC; HCT-116 colon; PC-3 prostate; HCC-2998 colon; HOP-92 NSCLC; HL-60(TB) leukemia; 786-0 renal; A498 renal; SK-MEL-2 melanoma.
Holding throughout (experiment): NCI anticancer screen, dose series, 48 h

For `COC(=O)C(C)(NC(=O)C(CC(=O)OC(C)(C)C)NC(=O)OC(C)(C)C)c1ccccc1` (stereo unspecified), the TGI in the test with UACC-257 melanoma, in the test on HOP-62 NSCLC, with HCT-116 colon, with PC-3 prostate, in the test with HCC-2998 colon and with HOP-92 NSCLC was above 100 µM throughout. For the same compound, the TGI in the test with HL-60(TB) leukemia, in the test with 786-0 renal and in the test on A498 renal was above 100 µM throughout.

On to `NC(=O)C(N)Cc1ccc(O)cn1` (stereo unspecified), for which the TGI in the test on UACC-257 melanoma, in the test with HOP-62 NSCLC, with HCT-116 colon, in the test on PC-3 prostate, in the test with HCC-2998 colon and in the test with HOP-92 NSCLC was above 100 µM each time. Also, the TGI in the test with HL-60(TB) leukemia, in the test with 786-0 renal and with A498 renal was above 100 µM each time.

Turning to `CC(=O)OCCn1cnc2nc(Nc3ccccc3)nc(Cl)c21`, the TGI in the test with UACC-257 melanoma is above 100 µM; in the test with HOP-62 NSCLC, above 100 µM; in the test with HCT-116 colon, above 100 µM; with PC-3 prostate, above 100 µM; in the test on HCC-2998 colon, above 100 µM; with HOP-92 NSCLC it was 34.4 µM. Besides, the TGI with HL-60(TB) leukemia, in the test on 786-0 renal and in the test with A498 renal was above 100 µM in each case.

As for `C=C1C[C@@H]2O[C@H]3[C@H]4[C@@H](C[C@@H](C)[C@@H](OC(C)=O)[C@H]42)[C@@H](C)CO[C@@]3(C)[C@H](OC(C)=O)C[C@H]1O`, the TGI with UACC-257 melanoma, with HCT-116 colon, in the test with PC-3 prostate, in the test on HCC-2998 colon, in the test with HOP-92 NSCLC and in the test with SK-MEL-2 melanoma was above 100 µM in each case. The TGI in the test with HL-60(TB) leukemia is 36.8 µM; in the test with 786-0 renal it was above 100 µM; in the test with A498 renal, above 100 µM.

Take `COc1nc(C(=O)NNC(=O)c2nc(OC)c3ccccc3c2-c2ccccc2)c(-c2ccccc2)c2ccccc12`: the TGI in the test on UACC-257 melanoma, with HOP-62 NSCLC, in the test on HCT-116 colon, in the test on PC-3 prostate, in the test with HCC-2998 colon and in the test on SK-MEL-2 melanoma was above 100 µM in each case. Besides, the TGI in the test with HL-60(TB) leukemia, with 786-0 renal and with A498 renal was above 100 µM in each case.

Consider `O=C(O)c1n[nH]nc1Cl`, for which the TGI in the test with UACC-257 melanoma, in the test with HOP-62 NSCLC, in the test on HCT-116 colon, in the test with PC-3 prostate, in the test on HCC-2998 colon and in the test with SK-MEL-2 melanoma was above 100 µM each time. For the same compound, the TGI in the test with HL-60(TB) leukemia, with 786-0 renal and in the test on A498 renal was above 100 µM in each case.

Take `CC(C)(Cc1ccccc1)NC1=NCCO1`: the TGI in the test on UACC-257 melanoma, with HCT-116 colon, in the test on PC-3 prostate, with HCC-2998 colon, in the test on HOP-92 NSCLC and with SK-MEL-2 melanoma was above 100 µM throughout. For the same compound, the TGI in the test on HL-60(TB) leukemia, in the test with 786-0 renal and with A498 renal was above 100 µM each time.

For `CS(=O)(=O)Nc1ccc(N2Cc3cnc4ccc5[nH]ccc2c5c34)cc1`, the TGI came out at 31.8 µM in the test on UACC-257 melanoma; 59.2 µM with HOP-62 NSCLC; 27.8 µM in the test on HCT-116 colon; 42 µM in the test with PC-3 prostate; 63.6 µM with HOP-92 NSCLC; 31.7 µM in the test with SK-MEL-2 melanoma. For the same compound, the TGI came out at 64.4 µM with HL-60(TB) leukemia, 40.3 µM with 786-0 renal and 49.4 µM in the test with A498 renal.

`CN(C)Cc1cc(C(=O)/C=C/c2ccc(Cl)cc2)cc(CN(C)C)c1O`: the TGI in the test with UACC-257 melanoma amounted to 29.2 µM; in the test on HOP-62 NSCLC it was 15.8 µM; in the test on HCT-116 colon, 26.5 µM; in the test with PC-3 prostate, 24.7 µM; in the test on HCC-2998 colon it was 34.1 µM; with HL-60(TB) leukemia it was 22.9 µM. The figures for the TGI with 786-0 renal and in the test with A498 renal were 20.2 µM and 27.7 µM, respectively.

In the case of `NNC(N)Nc1ccccc1` (stereo unspecified), the TGI with UACC-257 melanoma, with HOP-62 NSCLC, in the test on PC-3 prostate, in the test with HCC-2998 colon, in the test on HOP-92 NSCLC and in the test on SK-MEL-2 melanoma was above 100 µM in each case. In addition, the TGI in the test with HL-60(TB) leukemia and with A498 renal was above 100 µM each time.

In the case of `COc1ccc(C(=O)Sc2c(-c3ccccc3)c(=O)n(-c3ccccc3)c(=S)n2-c2ccccc2)cc1`, the TGI in the test on UACC-257 melanoma is above 100 µM; in the test on HOP-62 NSCLC, above 100 µM; in the test on HCT-116 colon, above 100 µM; in the test with PC-3 prostate, above 100 µM; with HCC-2998 colon, above 100 µM; in the test on HOP-92 NSCLC it was 71.2 µM. The TGI in the test with HL-60(TB) leukemia is above 100 µM; in the test with 786-0 renal, above 100 µM; with A498 renal it was 44 µM.

For `C[C@@H]1C[C@H]2[C@@H]3CCC4=CC(=O)C=C[C@]4(C)[C@@]3(Cl)[C@@H](Cl)C[C@]2(C)[C@@]1(O)C(=O)COP(=O)(O)O`, the TGI in the test on UACC-257 melanoma, with HOP-62 NSCLC, in the test with HCT-116 colon, in the test on PC-3 prostate, with HCC-2998 colon and in the test on HOP-92 NSCLC was above 100 µM in each case. In addition, the TGI with SK-MEL-2 melanoma, in the test on 786-0 renal and with A498 renal was above 100 µM throughout.

Consider `Nc1nc(Cl)c(N)c(NC23CC4CC(CC(C4)C2)C3)n1`, for which the TGI with UACC-257 melanoma is 7.16 µM; with HOP-62 NSCLC, 4.3 µM; with HCT-116 colon, 2.92 µM; with PC-3 prostate it was 2.97 µM; in the test with HCC-2998 colon, 7.89 µM; with HOP-92 NSCLC, above 19.9 µM. Further, the TGI in the test on SK-MEL-2 melanoma was determined as 1.16 µM; in the test on 786-0 renal it was 3.03 µM; with A498 renal, 8.13 µM.

Take `O=C1N=c2ccccc2=C1c1c(O)[nH]c2ccccc12`: the TGI in the test on UACC-257 melanoma is above 100 µM; in the test on HOP-62 NSCLC it was above 100 µM; in the test on HCT-116 colon it was 88.3 µM; with PC-3 prostate, 26.2 µM; with HCC-2998 colon, 63.5 µM; in the test on HOP-92 NSCLC, 81.1 µM. The TGI in the test with SK-MEL-2 melanoma is 58.9 µM; in the test on 786-0 renal it was 21.6 µM; in the test with A498 renal it was 64.3 µM.

For the compound `c1ccc(N=C2SC(=NC3CCCCC3)N(C3CCCCC3)C2=Nc2ccccc2)cc1`, the TGI with HOP-62 NSCLC, with HCT-116 colon, with PC-3 prostate, in the test on HCC-2998 colon, with SK-MEL-2 melanoma and in the test with HL-60(TB) leukemia was above 100 µM throughout. The compound also yielded a TGI with A498 renal above 100 µM.
